Tested on: FOG of α-DG on the cell surfaces
Test: Cell-based HTS/HCS assay, IIH6 antibody as probe (EC1.5)
Conditions: concentration of the compound required to enhance the FOG of α-DG by 50% over the controls; cell-based assays in vitro
Source text: Protein glycosylation is a multiple-step process that requires a large number of proteins in the secretory pathway of the cells. Thus we chose cell-based assay because our goal is to identify enhancer the FOG of α-DG on the cell surfaces. The assay system is HTS/HCS friendly and can adapt to various cell lines including myotubes as well as various readout methods including AlphaScreen, fluorescence density and HCS/fluorescence imaging. The standard operation protocol (SOP) for adhesion cells is described below and the FIG. 1 illustrates the assay process using myoblasts as the controls and screening cells and the IIH6 antibody as the probe. Other adhesion cells such CHO (Chinese hamster ovary) cell line can be implemented into this assay by simply removing the differentiation step.
Cell cultures: All cells are cultured at 37° C., 5% CO2, in appropriate media (F-12 for epithelial cells and DMEM for myoblasts) supplement with 10-20% fetal calf serum (FCS) and 1% antibiotics. […] The cells will be detached with trypsin EDTA and suspended in the cell culture media. The cells will be counted and seeded into the multiple-well plates as desired. Myotubes formation: When the myoblasts reach confluence, change the growth media to differential media (DEME with 2% horse serum) and incubate for 4-5 days.
The cells were fixed, permeablized, and then blocked with 10% BSA in PBS for 1 hour. […] After washing the cells with PBS for 2 times, the DAPI was used to stain the cells for 15 mins and wash 3 times with PBS. The images were captured with an inverted Olympus fluorescent microscope. For small compound localization experiment, the cells are incubated with the biotin conjugated compounds and then the cells were washed and incubated with streptavidin-Dye and then images will be captured to see the location of the compound-target-protein.
H, EC1.5<5 μM; M, EC1.5-20 μM; L, EC1.5 20-50 μM; VL, EC1.5>50 μM.

Row | Structure (SMILES) | Activity (EC1.5)
1 | c1csc(Cn2nncc2CN2CCN(c3nc4ccccc4s3)CC2)c1 [Compound 1, 2-(4-((1-(thiophen-2-ylmethyl)-1H-1,2,3-triazol-5-yl)methyl)piperazin-1-yl)benzothiazole] | L (EC1.5 20-50 μM)
2 | c1csc(Cn2nnnc2CN2CCN(c3nc4ccccc4s3)CC2)c1 [Compound 2, 2-(4-((1-(thiophen-2-ylmethyl)-1H-tetrazol-5-yl)methyl)piperazin-1-yl)benzothiazole] | M (EC1.5-20 μM)
3 | CC(c1nnnn1Cc1cccs1)N1CCN(c2nc3ccccc3s2)CC1 (stereo not shown) [Compound 3, 2-(4-(1-(1-(thiophen-2-ylmethyl)-1H-tetrazol-5-yl)ethyl)piperazin-1-yl)benzothiazole] | M (EC1.5-20 μM)
4 | CCC(c1nnnn1Cc1ccco1)N1CCC(c2nc3ccccc3s2)CC1 (stereo not shown) [Compound 4, 2-(1-(1-(1-(furan-2-ylmethyl)-1H-tetrazol-5-yl)propyl)piperidin-4-yl)benzothiazole] | M (EC1.5-20 μM)
5 | CCC(c1nnnn1Cc1ccco1)N1CCN(c2nc3ccccc3s2)CC1 (stereo not shown) [Compound 5, 2-(4-(1-(1-(furan-2-ylmethyl)-1H-tetrazol-5-yl)propyl)piperazin-1-yl)benzothiazole] | M (EC1.5-20 μM)
6 | CCC(c1nnnn1Cc1cccs1)N1CCN(c2nc3ccccc3s2)CC1 (stereo not shown) [Compound 6, 2-(4-(1-(1-(thiophen-2-ylmethyl)-1H-tetrazol-5-yl)propyl)piperazin-1-yl)benzothiazole] | M (EC1.5-20 μM)
7 | CCC(c1nnnn1Cc1cccs1)N1CCN(c2nc3ccccc3o2)CC1 (stereo not shown) [Compound 7, 2-(4-(1-(1-(thiophen-2-ylmethyl)-1H-tetrazol-5-yl)propyl)piperazin-1-yl)benzoxazole] | M (EC1.5-20 μM)
8 | CCC(c1nnnn1Cc1cccs1)N1CCC(c2nc3ccccc3s2)CC1 (stereo not shown) [Compound 8, 2-(1-(1-(1-(thiophen-2-ylmethyl)-1H-tetrazol-5-yl)propyl)piperidin-4-yl)benzothiazole] | M (EC1.5-20 μM)
9 | CCC(c1nnnn1Cc1cccs1)N1CCN(c2nc3ccccc3[nH]2)CC1 (stereo not shown) [Compound 9, 2-(4-(1-(1-(thiophen-2-ylmethyl)-1H-tetrazol-5-yl)propyl)piperazin-1-yl)-1H-benzimidazole] | L (EC1.5 20-50 μM)
10 | CCC(c1nnnn1Cc1cccs1)N1CCN(c2nc3ccc([N+](=O)[O-])cc3s2)CC1 (stereo not shown) [Compound 10, 6-nitro-2-(4-(1-(1-(thiophen-2-ylmethyl)-1H-tetrazol-5-yl)propyl)piperazin-1-yl)benzothiazole] | VL (EC1.5>50 μM)
11 | CCC(c1nnnn1Cc1cccs1)N1CCN(c2nc3ccc(N)cc3s2)CC1 (stereo not shown) [Compound 11, 6-amino-2-(4-(1-(1-(thiophen-2-ylmethyl)-1H-tetrazol-5-yl)propyl)piperazin-1-yl)benzothiazole] | M (EC1.5-20 μM)
12 | CCC(c1nnnn1Cc1cccs1)N1CCN(c2nc3ccc(NC(=O)CCCC[C@@H]4SC[C@@H]5NC(=O)N[C@@H]54)cc3s2)CC1 (stereo partly drawn) [Compound 12, 5-((3aS,4S,6aR)-2-oxohexahydro-1H-thieno[3,4-d]imidazol-4-yl)-N-(2-(4-(1-(1-(thiophen-2-ylmethyl)-1H-tetrazol-5-yl)propyl)piperazin-1-yl)benzothiazol-6-yl)pentanamide] | H (EC1.5<5 μM)
13 | CCC(c1nnnn1Cc1cccs1)N1CCN(c2nc3ccc(F)cc3s2)CC1 (stereo not shown) [Compound 13, 6-fluoro-2-(4-(1-(1-(thiophen-2-ylmethyl)-1H-tetrazol-5-yl)propyl)piperazin-1-yl)benzothiazole] | L (EC1.5 20-50 μM)
14 | CCC(c1nnnn1Cc1cccs1)N1CCN(c2nc3ccc(OC)cc3s2)CC1 (stereo not shown) [Compound 14, 6-methoxy-2-(4-(1-(1-(thiophen-2-ylmethyl)-1H-tetrazol-5-yl)propyl)piperazin-1-yl)benzothiazole] | M (EC1.5-20 μM)
15 | CCC(c1nnnn1Cc1cccs1)N1CCN(c2nc3ccc(Cl)cc3s2)CC1 (stereo not shown) [Compound 15, 6-chloro-2-(4-(1-(1-(thiophen-2-ylmethyl)-1H-tetrazol-5-yl)propyl)piperazin-1-yl)benzothiazole] | M (EC1.5-20 μM)
16 | CCC(c1nnnn1Cc1cccs1)N1CCN(c2nc3ccc(C)cc3s2)CC1 (stereo not shown) [Compound 16, 6-methyl-2-(4-(1-(1-(thiophen-2-ylmethyl)-1H-tetrazol-5-yl)propyl)piperazin-1-yl)benzothiazole] | L (EC1.5 20-50 μM)

Row | Structure (SMILES) | Activity (EC1.5)
17 | CCC(c1nnnn1Cc1cccs1)N1CCN(c2nc3ccc(-c4ccccc4)cc3s2)CC1 (stereo not shown) [Compound 17, 6-phenyl-2-(4-(1-(1-(thiophen-2-ylmethyl)-1H-tetrazol-5-yl)propyl)piperazin-1-yl)benzothiazole] | VL (EC1.5>50 μM)
18 | CCC(c1nnnn1Cc1cccs1)N1CCN(c2nc3ccc(NC(=O)c4ccccc4Cl)cc3s2)CC1 (stereo not shown) [Compound 18, 2-chloro-N-(2-(4-(1-(1-(thiophen-2-ylmethyl)-1H-tetrazol-5-yl)propyl)piperazin-1-yl)benzothiazol-6-yl)benzamide] | VL (EC1.5>50 μM)
19 | CCC(c1nnnn1Cc1cccs1)N1CCN(c2nc3ccc(NC(=O)c4ccccc4C)cc3s2)CC1 (stereo not shown) [Compound 19, 2-methyl-N-(2-(4-(1-(1-(thiophen-2-ylmethyl)-1H-tetrazol-5-yl)propyl)piperazin-1-yl)benzothiazol-6-yl)benzamide] | VL (EC1.5>50 μM)
20 | CCC(c1nnnn1Cc1cccs1)N1CCN(c2nc3cc(OC)c(OC)c(OC)c3s2)CC1 (stereo not shown) [Compound 20, 5.6.7-trimethaxy-2-(4-(1-(1-(thiophen-2-ylmethyl)-1H-tetrarol-5-yl)propyl)piperazin-1-yl)benzothiazole] | M (EC1.5-20 μM)
21 | CCC(c1nnnn1Cc1cccs1)N1CCN(c2nc3cccc(F)c3s2)CC1 (stereo not shown) [Compound 21, 7-fluoro-2-(4-(1-(1-(thiophen-2-ylmethyl)-1H-tetrazol-5-yl)propyl)piperazin-1-yl)benzothiazole] | H (EC1.5<5 μM)
22 | CCC(c1nnnn1Cc1cccs1)N1CCN(c2nc3c([N+](=O)[O-])cccc3s2)CC1 (stereo not shown) [Compound 22, 4-nitro-2-(4-(1-(1-(thiophen-2-ylmethyl)-1H-tetrazol-5-yl)propyl)piperazin-1-yl)benzothiazole] | L (EC1.5 20-50 μM)
23 | CCC(c1nnnn1Cc1cccs1)N1CCN(c2nc3c(N)cccc3s2)CC1 (stereo not shown) [Compound 23, 4-aminn-2-(4-(1-(1-(thiophen-2-ylmethyl) 1H-tetrazol-5-yl)propyl)piperazin-1-yl)benzothiazole] | M (EC1.5-20 μM)
24 | CCC(c1nnnn1Cc1cccs1)N1CCN(c2nc3cccnc3s2)CC1 (stereo not shown) [Compound 24, 2-(4-(1-(1-(thiophen-2-ylmethyl)-1H-tetrazol-5-yl)propyl)piperazin-1-yl)thiazolo[5,4-b]pyridine] | M (EC1.5-20 μM)
25 | CCC(c1nnnn1Cc1cccs1)N1CCN(c2nc3cc(F)ccc3s2)CC1 (stereo not shown) [Compound 25, 5-fluoro-2-(4-(1-(1-(thiophen-2-ylmethyl)-1H-tetrazol-5-yl)propyl)piperazin-1-yl)benzothiazole] | L (EC1.5 20-50 μM)
26 | CCC(c1nnnn1Cc1cccs1)N1CCN(c2nc3cccc(C(F)(F)F)c3s2)CC1 (stereo not shown) [Compound 26, 2-(4-(1-(1-(thiophen-2-ylmethyl)-1H-tetrazol-5-yl)propyl)piperazin-1-yl)-7-(trifluoramethyl)benzothiazole] | L (EC1.5 20-50 μM)
27 | CCC(NCCNc1nc2cccc(F)c2s1)c1nnnn1Cc1cccs1 (stereo not shown) [Compound 27, N^1-(7-fluorobenzothiazol-2-yl)-N^2-(1-(1-(thiophen-2-ylmethyl)-1H-tetrazol-5-yl)propyl)ethane-1,2-diamine] | M (EC1.5-20 μM)
28 | CCC(c1nnnn1Cc1cccs1)N1CCN(c2nc3cc([N+](=O)[O-])ccc3s2)CC1 (stereo not shown) [Compound 28, 5-nitro-2-(4-(1-(1-(thiophen-2-ylmethyl)-1H-tetrazol-5-yl)propyl)piperazin-1-yl)benzothiazole] | M (EC1.5-20 μM)
29 | CCC(c1nnnn1Cc1cccs1)N1CCN(c2nc3cc(N)ccc3s2)CC1 (stereo not shown) [Compound 29, 5-amino-2-(4-(1-(1-(thiophen-2-ylmpthyl)-1H-tetrazol-5-yl)propyl)piperazin-1-yl)benzothiazole] | H (EC1.5<5 μM)
30 | CCC(c1nnnn1Cc1cccs1)N1CCN(c2nc3c(F)cccc3s2)CC1 (stereo not shown) [Compound 30, 4-fluoro-2-(4-(1-(1-(thiophen-2-ylmethyl)-1H-tetrazol-5-yl)propyl)piperazin-1-yl)benzothiazole] | H (EC1.5<5 μM)
31 | CCC(c1nnnn1Cc1cccs1)N1CCN(c2nc3ccc(C(=O)OC)cc3s2)CC1 (stereo not shown) [Compound 31, methyl 2-(4-(1-(1-(thiophen-2-ylmethyl)-1H-tetrazol-5-yl)propyl)piperazin-1-yl)benzothiazole-6-carboxylate] | L (EC1.5 20-50 μM)

— patent US10221168B1, “Small-compound enhancers for functional O-mannosylation of alpha-dystroglycan, and uses thereof” (priority 2015, dated 2019)
